Test results as given in US12281149B2, “Modulators of G-protein coupled receptors” (priority 2021, dated 2025).
*1 amine or outer side, *2 acyl side, *3 side chain or, on linkers, in order; H or OH if unused. Where a SMILES comes first, the peptide text is derived from it. Side-chain parts run from the residue outwards. [ ]: non-standard residue; d: D form. The star is where a group is joined. C20 diacid = O=C(O)CCCCCCCCCCCCCCCCCCC(=O)*; γGlu = O=C(O)[C@H](CCC(=O)[*:2])N[*:1]; X4 = O=C(C(F)(F)c1ccc(F)cc1)*; X78 = CC(C)(C(=O)*)C1CCCCC1; X6 = CC(C)(C(=O)*)c1ccccc1; AEEA = NCCOCCOCC(=O)O; Aib = CC(C)(N)C(=O)O; Piv = CC(C)(C)C(=O)*; βAla = NCCC(=O)O

How the values were obtained:
Type in all cases: cell-based
GLP-1 receptor [1] = molecular target: T1, GLP-1 receptor (Homo sapiens, UniProt P43220); experiment: HitHunter cAMP assay, GLP-1 receptor; conditions: for Emax: CHO cells, cAMP, normalized to maximum signal from GLP-1 (high) and DMSO (low), read-out: Emax GLP-1R
T1 sequence (P43220 24-463): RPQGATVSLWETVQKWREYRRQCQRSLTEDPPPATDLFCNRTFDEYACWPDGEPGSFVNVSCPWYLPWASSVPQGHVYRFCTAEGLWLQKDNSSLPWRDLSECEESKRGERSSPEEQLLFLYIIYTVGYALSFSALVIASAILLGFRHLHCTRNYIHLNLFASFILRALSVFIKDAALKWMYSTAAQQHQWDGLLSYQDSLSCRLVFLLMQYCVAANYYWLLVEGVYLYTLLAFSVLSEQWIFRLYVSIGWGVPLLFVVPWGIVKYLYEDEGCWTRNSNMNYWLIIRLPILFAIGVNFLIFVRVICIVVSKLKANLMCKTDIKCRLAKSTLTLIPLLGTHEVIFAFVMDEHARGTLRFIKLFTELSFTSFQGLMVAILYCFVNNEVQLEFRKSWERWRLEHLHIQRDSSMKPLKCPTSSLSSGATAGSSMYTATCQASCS

GIP receptor [2] = molecular target: T2, GIP receptor (Homo sapiens, UniProt P48546); experiment: HitHunter cAMP assay, GIP receptor; conditions: for Emax: CHO cells, cAMP, normalized to maximum signal from GIP (high) and DMSO (low), read-out: Emax GIP-1R
T2 sequence (P48546 22-466): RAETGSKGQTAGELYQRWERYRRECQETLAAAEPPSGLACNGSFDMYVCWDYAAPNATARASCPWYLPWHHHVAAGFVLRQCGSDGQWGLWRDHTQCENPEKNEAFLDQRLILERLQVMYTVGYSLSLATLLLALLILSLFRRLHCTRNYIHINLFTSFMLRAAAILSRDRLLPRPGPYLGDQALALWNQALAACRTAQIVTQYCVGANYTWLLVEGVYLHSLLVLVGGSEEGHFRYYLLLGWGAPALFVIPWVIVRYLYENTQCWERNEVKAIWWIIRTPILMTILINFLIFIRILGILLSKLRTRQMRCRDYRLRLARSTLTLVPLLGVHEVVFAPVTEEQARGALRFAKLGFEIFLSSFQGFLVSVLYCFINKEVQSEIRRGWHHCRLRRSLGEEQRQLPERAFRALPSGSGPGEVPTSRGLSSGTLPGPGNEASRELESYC

GIP receptor [3] = molecular target: T2, GIP receptor; experiment: PathHunter β-arrestin assay, GIP receptor; parameters: host or cells: PathHunter CHO-K1 GIPR β-Arrestin Cell Line
GLP-1 receptor [4] = molecular target: T1, GLP-1 receptor; experiment: PathHunter β-arrestin assay, GLP-1 receptor; parameters: host or cells: PathHunter CHO-K1 GLP1R β-Arrestin Cell Line
[5] = CHO cells stably expressing human GLP-1 receptor, cAMP accumulation, 30 min, read-out: EC50 GLP-1R
[6] = CHO cells stably expressing GIP receptor, cAMP accumulation, 30 min, read-out: EC50 GIP-1R
[7] = β-arrestin-2 recruitment, PathHunter CHO-K1 GIPR β-Arrestin Cell Line, 90 min at 37° C., normalized to GIP, read-out: GIPR β Arrestin EC50
[8] = β-arrestin-2 recruitment, PathHunter CHO-K1 GLP1R β-Arrestin Cell Line, 90 min at 37° C., normalized to GLP-1, read-out: GLP-1R β Arrestin EC50

SMILES	EC50 (GLP-1 receptor [1]) [nM]	Emax (GLP-1 receptor [1]) [%]	EC50 (GIP receptor [2]) [nM]	Emax (GIP receptor [2]) [%]	EC50 (GIP receptor [3]) [nM]	EC50 (GLP-1 receptor [4]) [nM]	EC50 (GLP-1 receptor [1]; [5]) [nM]	EC50 (GIP receptor [2]; [6]) [nM]	EC50 (GIP receptor [3]; [7]) [nM]	EC50 (GLP-1 receptor [4]; [8]) [nM]
CC[C@H](C)[C@H](NC(=O)[C@H](CO)NC(=O)[C@H](CCCCNC(=O)COCCOCCNC(=O)COCCOCCNC(=O)CC[C@H](NC(=O)CCCCCCCCCCCCCCCCCCC(=O)O)C(=O)O)NC(=O)[C@H](CC(=O)O)NC(=O)[C@H](CO)NC(=O)[C@@H](NC(=O)[C@H](Cc1ccccc1)NC(=O)[C@@H](NC(=O)CNC(=O)[C@H](CCC(=O)O)NC(=O)CCNC(=O)C(C)(C)c1cccc(C#N)c1)[C@@H](C)O)[C@@H](C)O)C(=O)N[C@@H](Cc1ccc(O)cc1)C(=O)N[C@@H](CC(C)C)C(=O)N[C@@H](CC(=O)O)C(=O)N[C@@H](CCCCN)C(=O)N[C@@H](CCC(N)=O)C(=O)N[C@@H](C)C(=O)N[C@@H](C)C(=O)NC(C)(C)C(=O)N[C@@H](CCC(=O)O)C(=O)N[C@@H](Cc1ccccc1)C(=O)N[C@H](C(=O)N[C@@H](CC(N)=O)C(=O)N[C@@H](Cc1c[nH]c2ccccc12)C(=O)N[C@@H](CC(C)C)C(=O)N[C@@H](CC(C)C)C(=O)N[C@@H](C)C(=O)NCC(=O)NCC(=O)N1CCC[C@H]1C(=O)N[C@@H](CO)C(=O)N[C@@H](CO)C(=O)NCC(=O)N[C@@H](C)C(=O)N1CCC[C@H]1C(=O)N1CCC[C@H]1C(=O)N1CCC[C@H]1C(=O)N[C@@H](CO)C(N)=O)C(C)C [Compound 143]	< 0.1	101	10 to 100	100	> 1000	< 1000	–	–	–	–
CC[C@H](C)[C@H](NC(=O)[C@H](CC(C)C)NC(=O)[C@H](Cc1c[nH]c2ccccc12)NC(=O)[C@H](CCC(N)=O)NC(=O)[C@@H](NC(=O)[C@H](Cc1ccccc1)NC(=O)[C@H](C)NC(=O)[C@H](CCCCNC(=O)COCCOCCNC(=O)COCCOCCNC(=O)CC[C@H](NC(=O)CCCCCCCCCCCCCCCCCCC(=O)O)C(=O)O)NC(=O)[C@H](CCC(N)=O)NC(=O)[C@H](C)NC(=O)[C@@H](NC(=O)[C@H](CCCCN)NC(=O)[C@H](CC(=O)O)NC(=O)[C@H](CC(C)C)NC(=O)C(C)(C)NC(=O)[C@@H](NC(=O)[C@H](CO)NC(=O)[C@H](Cc1ccc(O)cc1)NC(=O)[C@H](CC(=O)O)NC(=O)[C@H](CO)NC(=O)[C@@H](NC(=O)[C@H](Cc1ccccc1)NC(=O)[C@@H](NC(=O)CNC(=O)[C@H](CCC(=O)O)NC(=O)CCNC(=O)C(C)(C)C)[C@@H](C)O)[C@@H](C)O)[C@@H](C)CC)[C@@H](C)CC)C(C)C)C(=O)N[C@@H](C)C(=O)NCC(=O)NCC(=O)N1CCC[C@H]1C(=O)N[C@@H](CO)C(=O)N[C@@H](CO)C(=O)NCC(=O)N[C@@H](C)C(=O)N1CCC[C@H]1C(=O)N1CCC[C@H]1C(=O)N1CCC[C@H]1C(=O)N[C@@H](CO)C(N)=O [Compound 197] ({Piv-βAla}-EGTFTSDYSI[Aib]LDKIAQK([AEEA-AEEA-γGlu-C20 diacid])AFVQWLIAGGPSSGAPPPS-NH2)	–	96	–	97	–	–	0.1 to 1	10 to 100	> 1000	> 1000
CC[C@H](C)[C@H](NC(=O)[C@H](CC(C)C)NC(=O)[C@H](Cc1c[nH]c2ccccc12)NC(=O)[C@H](CCC(N)=O)NC(=O)[C@@H](NC(=O)[C@H](Cc1ccccc1)NC(=O)[C@H](C)NC(=O)[C@H](CCCCNC(=O)COCCOCCNC(=O)COCCOCCNC(=O)CC[C@H](NC(=O)CCCCCCCCCCCCCCCCCCC(=O)O)C(=O)O)NC(=O)[C@H](CCC(N)=O)NC(=O)[C@H](C)NC(=O)[C@@H](NC(=O)[C@H](CCCCN)NC(=O)[C@H](CC(=O)O)NC(=O)[C@H](CC(C)C)NC(=O)C(C)(C)NC(=O)[C@@H](NC(=O)[C@H](CO)NC(=O)[C@H](Cc1ccc(O)cc1)NC(=O)[C@H](CC(=O)O)NC(=O)[C@H](CO)NC(=O)[C@@H](NC(=O)[C@H](Cc1ccccc1)NC(=O)[C@@H](NC(=O)CNC(=O)[C@H](CCC(=O)O)NC(=O)CCNC(=O)C(C)(C)C1CCCCC1)[C@@H](C)O)[C@@H](C)O)[C@@H](C)CC)[C@@H](C)CC)C(C)C)C(=O)N[C@@H](C)C(=O)NCC(=O)NCC(=O)N1CCC[C@H]1C(=O)N[C@@H](CO)C(=O)N[C@@H](CO)C(=O)NCC(=O)N[C@@H](C)C(=O)N1CCC[C@H]1C(=O)N1CCC[C@H]1C(=O)N1CCC[C@H]1C(=O)N[C@@H](CO)C(N)=O [Compound 205] ({X78-βAla}-EGTFTSDYSI[Aib]LDKIAQK([AEEA-AEEA-γGlu-C20 diacid])AFVQWLIAGGPSSGAPPPS-NH2)	–	99	–	99	–	–	1 to 10	10 to 100	> 1000	> 1000
CC[C@H](C)[C@H](NC(=O)[C@H](CC(C)C)NC(=O)[C@H](Cc1c[nH]c2ccccc12)NC(=O)[C@H](CCC(N)=O)NC(=O)[C@@H](NC(=O)[C@H](Cc1ccccc1)NC(=O)[C@H](C)NC(=O)[C@H](CCCCNC(=O)COCCOCCNC(=O)COCCOCCNC(=O)CC[C@H](NC(=O)CCCCCCCCCCCCCCCCCCC(=O)O)C(=O)O)NC(=O)[C@H](CCC(N)=O)NC(=O)[C@H](C)NC(=O)[C@@H](NC(=O)[C@H](CCCCN)NC(=O)[C@H](CC(=O)O)NC(=O)[C@H](CC(C)C)NC(=O)C(C)(C)NC(=O)[C@@H](NC(=O)[C@H](CO)NC(=O)[C@H](Cc1ccc(O)cc1)NC(=O)[C@H](CC(=O)O)NC(=O)[C@H](CO)NC(=O)[C@@H](NC(=O)[C@H](Cc1ccccc1)NC(=O)[C@@H](NC(=O)CNC(=O)[C@H](CCC(=O)O)NC(=O)CCNC(=O)C(C)(C)c1ccccc1)[C@@H](C)O)[C@@H](C)O)[C@@H](C)CC)[C@@H](C)CC)C(C)C)C(=O)N[C@@H](C)C(=O)NCC(=O)NCC(=O)N1CCC[C@H]1C(=O)N[C@@H](CO)C(=O)N[C@@H](CO)C(=O)NCC(=O)N[C@@H](C)C(=O)N1CCC[C@H]1C(=O)N1CCC[C@H]1C(=O)N1CCC[C@H]1C(=O)N[C@@H](CO)C(N)=O [Compound 241] ({X6-βAla}-EGTFTSDYSI[Aib]LDKIAQK([AEEA-AEEA-γGlu-C20 diacid])AFVQWLIAGGPSSGAPPPS-NH2)	–	95	–	100	–	–	0.1 to 1	1 to 10	< 1000	< 1000
CC[C@H](C)[C@H](NC(=O)[C@H](CC(C)C)NC(=O)[C@H](Cc1c[nH]c2ccccc12)NC(=O)[C@H](CCC(N)=O)NC(=O)[C@@H](NC(=O)[C@H](Cc1ccccc1)NC(=O)[C@H](C)NC(=O)[C@H](CCCCNC(=O)COCCOCCNC(=O)COCCOCCNC(=O)CC[C@H](NC(=O)CCCCCCCCCCCCCCCCCCC(=O)O)C(=O)O)NC(=O)[C@H](CCC(N)=O)NC(=O)[C@H](C)NC(=O)[C@@H](NC(=O)[C@H](CCCCN)NC(=O)[C@H](CC(=O)O)NC(=O)[C@H](CC(C)C)NC(=O)C(C)(C)NC(=O)[C@@H](NC(=O)[C@H](CO)NC(=O)[C@H](Cc1ccc(O)cc1)NC(=O)[C@H](CC(=O)O)NC(=O)[C@H](CO)NC(=O)[C@@H](NC(=O)[C@H](Cc1ccccc1)NC(=O)[C@@H](NC(=O)CNC(=O)[C@H](CCC(=O)O)NC(=O)CCNC(=O)C(F)(F)c1ccc(F)cc1)[C@@H](C)O)[C@@H](C)O)[C@@H](C)CC)[C@@H](C)CC)C(C)C)C(=O)N[C@@H](C)C(=O)NCC(=O)NCC(=O)N1CCC[C@H]1C(=O)N[C@@H](CO)C(=O)N[C@@H](CO)C(=O)NCC(=O)N[C@@H](C)C(=O)N1CCC[C@H]1C(=O)N1CCC[C@H]1C(=O)N1CCC[C@H]1C(=O)N[C@@H](CO)C(N)=O [Compound 188] ({X4-βAla}-EGTFTSDYSI[Aib]LDKIAQK([AEEA-AEEA-γGlu-C20 diacid])AFVQWLIAGGPSSGAPPPS-NH2)	–	91	–	79	–	–	0.1 to 1	10 to 100	> 1000	> 1000
